# Experiments:
# Adrenergic receptor beta = Adrenergic receptor beta (Rattus norvegicus, UniProt P18090+P10608+P26255); assay: The compound was tested for its ability to inhibit (-)-[3H]dihydroalprenolol binding to beta-adrenergic receptor sites in rat cortex
# [1] = target: Beta-1 adrenergic receptor (Cavia porcellus, UniProt B0FL73); assay: Tested for beta-1-adrenergic blocking effect by measuring the ability to inhibit the positive inotropic effect of isoproterenol on the isolated right atrium of guinea pigs; format: functional, tissue-based, Cardiac atrium
# Sequence of Beta-1 adrenergic receptor (B0FL73 whole entry): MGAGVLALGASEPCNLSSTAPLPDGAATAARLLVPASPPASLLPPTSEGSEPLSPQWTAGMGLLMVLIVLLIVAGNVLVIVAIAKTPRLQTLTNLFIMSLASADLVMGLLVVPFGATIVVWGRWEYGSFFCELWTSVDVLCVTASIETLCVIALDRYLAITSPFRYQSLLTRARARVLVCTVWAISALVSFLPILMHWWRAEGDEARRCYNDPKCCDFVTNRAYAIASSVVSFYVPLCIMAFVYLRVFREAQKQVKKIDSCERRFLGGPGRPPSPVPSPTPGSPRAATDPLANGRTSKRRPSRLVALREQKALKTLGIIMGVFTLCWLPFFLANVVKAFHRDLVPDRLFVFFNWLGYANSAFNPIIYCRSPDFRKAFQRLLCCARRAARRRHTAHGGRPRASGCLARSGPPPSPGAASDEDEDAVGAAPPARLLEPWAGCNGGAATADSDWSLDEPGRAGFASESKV
# [2] = Ratio of beta-1-adrenergic blocking effect to that of beta 2 -adrenergic blocking effect; format: functional
SMILES,IC50 (Adrenergic receptor beta),IC50 [1],Ratio [2]
COCCc1ccc(OC(F)(F)[C@H](O)CNC(C)C)cc1,> 100 µM,–,–
COCCc1ccc(OC(F)(F)[C@@H](O)CNC(C)C)cc1,1.54 µM,1.35 µM,0.63

# Reference: ChEMBL document CHEMBL1129868 (Bioorg Med Chem Lett, 1997)
